According to article PMC8688338 (Molecular microbiology, 2021):
Values joined by “and” are separate entries in the source; they are usually repeats but may differ in a detail not shown here. Equal entries are not always repeated. Where two headings read alike, the source gives them in different places.

Tests used:
T. vaginalis = details: cited from earlier work
TvagENT3 = TvagENT3 (Trichomonas vaginalis, UniProt A2E5Q3); test: [3H]-cytidine uptake by T. brucei TbAT1-KO cells expressing TvagENT3; details: for inhibition of cytidine uptake: 0.5 µM [3H]-cytidine
[1] = molecular target: low affinity pyrimidine nucleobase transporter of T. vaginalis; test: [3H]-uracil transport in T. vaginalis trophozoites; type: cell-based, Trichomonas vaginalis; details: for Ki: read-out: Ki,app
[2] = test system: T. vaginalis adenine transporter; test: [3H]-adenine transport in T. vaginalis trophozoites; type: cell-based, Trichomonas vaginalis; details: for Km: read-out: Km,app
TvagENT6 [3] = molecular target: T1, TvagENT6 (Trichomonas vaginalis, UniProt A2EMT5)
[4] = molecular target: T. vaginalis nucleoside transporters, Adenosine (HA); test: High affinity [3H]-adenosine transport in T. vaginalis trophozoites; type: cell-based, Trichomonas vaginalis
[5] = test system: T. vaginalis nucleoside transporters, Adenosine (LA); test: Low affinity adenosine transport; type: cell-based, Trichomonas vaginalis; details: for inhibition of transport: 20 µM [3H]-adenosine, highest tested concentration: guanosine 250 µM, adenine 1 mM, hypoxanthine 1 mM, uracil 10 mM; for Ki: read-out: Ki,app, average and SEM; for Ki / EC50: inhibition of 20 µM [3H]-adenosine transport; for EC50: single experiment, Fig. 4
[6] = test system: T. vaginalis nucleoside transporters, Thymidine (HA); test: Higher affinity [3H]-thymidine transport; type: cell-based, Trichomonas vaginalis; details: for EC50: single experiment
[7] = molecular target: T. vaginalis nucleoside transporters, Guanosine (HA); test: [3H]-guanosine transport in T. vaginalis trophozoites; type: cell-based, Trichomonas vaginalis; details: for Ki: read-out: Ki,app, inhibition of [3H]-guanosine transport, monophasic sigmoid curve
[8] = molecular target: T. vaginalis nucleoside transporters, Uridine (HA); test: [3H]-uridine transport in T. vaginalis trophozoites; type: cell-based, Trichomonas vaginalis; details: for Km: read-out: Km,app, Uridine (HA)
[9] = test system: T. vaginalis nucleoside transporters, Cytidine (HA); test: High affinity [3H]-cytidine transport in T. vaginalis trophozoites; type: cell-based, Trichomonas vaginalis; details: for Km: read-out: Km,app, […] [3H]-cytidine; for Ki: read-out: Ki,app, inhibition of […] [3H]-cytidine transport, 30 s
[10] = test system: T. vaginalis nucleoside transporters, Cytidine (LA); test: Low affinity cytidine transport in T. vaginalis trophozoites; type: cell-based, Trichomonas vaginalis; details: Cytidine (LA); average and SEM
[11] = test system: T. vaginalis trophozoites; test: Preliminary uptake of cytosine and thymine by T. vaginalis trophozoites; type: cell-based, Trichomonas vaginalis; details: preliminary experiments
[12] = test system: T. vaginalis nucleoside transporters; details: ref Harris et al., 1988; cited from earlier work
[13] = molecular target: T. vaginalis nucleoside transporters, Inosine (LA); test: Low affinity [3H]-inosine transport in T. vaginalis trophozoites; type: cell-based, Trichomonas vaginalis; details: for Ki: read-out: Ki,app; for Km: read-out: Km,app
TvagENT6 [14] = molecular target: T1, TvagENT6; test: cell-based
[15] = test system: Nc1ccn([C@@H]2O[C@H](CO)[C@@H](O)[C@H]2O)c(=O)n1; test: cells, lysate or membranes
[16] = single experiment, Fig. 6E inset
[17] = read-out: Ki,app, inhibition of […] [3H]-adenosine transport, 30 s, monophasic, average and SEM
[18] = inhibition of 0.5 µM [3H]-uracil uptake
[19] = inhibition of 1 µM [3H]-inosine uptake, average and SEM
[20] = inhibition of 0.125 µM [3H]-thymidine uptake, Fig. 3C/D
[21] = read-out: Ki,app, low affinity component

2’F,2’-deoxyadenosine
antitrichomonal activity (T. vaginalis; ref Shokar et al., 2012): strong antitrichomonal activity | Hill slope (TvagENT3): −0.97± 0.15 | Ki (TvagENT3; read-out: Ki,app): 1.11 ± 0.38 µM

Nc1ncnc2c1ncn2[C@@H]1O[C@H](CO)[C@@H](O)[C@@H]1F [2′-F,2′-deoxyarabinoadenosine]
antitrichomonal activity (T. vaginalis; ref Shokar et al., 2012): strong antitrichomonal activity

O=c1[nH]cc(F)c(=O)[nH]1 [5F-uracil]
Ki [1]: 265 ± 57 µM

Nc1ncnc2c1ncn2[C@@H]1O[C@H](CO)[C@@H](O)[C@@H]1O [adenine arabinoside]
antitrichomonal activity (T. vaginalis; ref Shokar et al., 2012): strong antitrichomonal activity

Nc1ncnc2nc[nH]c12 [adenine]
EC50 [2]: 0.35 µM | rate of transport ([2]; 50 nM [3H]-adenine): 0.00073 pmol(10^7 cells)^−1s^−1 | rate of transport in the presence of unlabelled permeant ([2]; 50 nM [3H]-adenine + 1 mM unlabelled adenine): 0.000097 pmol(10^7 cells)^−1s^−1 | inhibition of uptake ([2]; 50 nM [3H]-adenine by 1 mM unlabelled adenine): 86.7% | Vmax ([2]; 50 nM [3H]-adenine, average): 0.091 ± 0.027 pmol(10^7 cells)^−1s^−1 | rate of transport ([2]; 1 µM [3H]-adenine): 0.0164 pmol(10^7 cells)^−1s^−1 and 0.016 pmol(10^7 cells)^−1s^−1 | rate of transport in the presence of unlabelled permeant ([2]; 1 µM [3H]-adenine + 1 mM unlabelled adenine): 0.00429 pmol(10^7 cells)^−1s^−1 | inhibition of uptake ([2]; 1 µM [3H]-adenine by 1 mM unlabelled adenine): 73.8% | EC50 ([2]; inhibition of [3H]-adenine uptake, single experiment, Fig. 6E): 0.27 µM | EC50 ([2]; read-out: EC50, high affinity component, two transporter model, Fig. 6F): 0.23 µM | EC50 ([2]; read-out: EC50, lower affinity component, two transporter model, Fig. 6F, large degree of uncertainty): 17 µM | Km ([2]; 50 nM [3H]-adenine, high-affinity system, average): 0.41 ± 0.097 µM | Km [2, 16]: 0.23 µM | Vmax [2, 16]: 0.155 pmol(10^7 cells)^−1s^−1 | share of flux of high affinity component ([2]; two transporter model, Fig. 6F): 81% | inhibition of transporter (TvagENT6 [3]; adenine up to 1 mM): not significantly inhibited | Ki ([4]; read-out: Ki,app, inhibition of […] [3H]-adenosine transport): > 1000 µM | Ki [4, 17]: ~1000 µM | inhibition of transport [5]: ≤ 50% | Ki [5]: > 1000 µM | inhibition of transport ([6]; 125 nM [3H]-thymidine, nucleobase at 1 mM): ≤ 50%

Nc1ccn([C@@H]2O[C@H](CO)[C@@H](O)[C@H]2O)c(=O)n1 [cytidine]
Ki ([7]; average and SEM): 18.6 ± 0.9 µM | Ki ([8]; read-out: Ki,app, inhibition of 0.5 µM [3H]-uridine transport, 30 s, average and SEM): 15.6 ± 2.3 µM | inhibition of uptake ([9]; 0.25 µM [3H]-cytidine by 1 mM unlabelled cytidine): 97.0% | rate of transport ([9]; 0.25 µM [3H]-cytidine, no inhibitor): 0.026 ± 0.001 pmol(10^7 cells)^−1s^−1 | Vmax ([9]; Cytidine (HA), average and SEM): 0.83 ± 0.06 pmol(10^7 cells)^−1s^−1 | Km ([9]; Cytidine (HA), average and SEM): 7.19 ± 1.77 µM | Km ([9]; Cytidine (HA), average and SEM, listed as Cytidine): 7.2 ± 1.8 µM | Ki [4, 17]: 17.9 ± 4.4 µM | EC50 [5]: 290 µM | Ki [5]: 116 ± 5 µM | inhibition of cytidine uptake (TvagENT3; 1 mM unlabelled cytidine): strongly inhibited | Vmax (TvagENT3; single experiment, Fig. 10D inset): 0.042 pmol(10^7 cells)^−1s^−1 | Hill slope (TvagENT3; single experiment, Fig. 10D-F): −0.99 | Vmax [10]: 6.7 ± 1.8 pmol(10^7 cells)^−1s^−1 | EC50 ([6]; read-out: EC50, higher affinity component, 0.125 µM [3H]-thymidine, 2-transporter plot, Fig. 3D): 2.86 µM | EC50 ([6]; read-out: EC50, lower affinity component, 0.125 µM [3H]-thymidine, 2-transporter plot, Fig. 3D): 322 µM

Nc1cc[nH]c(=O)n1 [cytosine]
Ki [1, 18]: 334 ± 73 µM | saturable uptake ([11]; cytosine 0.25 µM over 120 s): not significant

Nc1ncnc2c([C@@H]3O[C@H](CO)[C@@H](O)[C@H]3O)[nH]nc12 [formycin A]
antitrichomonal activity (T. vaginalis; ref Munagala and Wang, 2003): strong antitrichomonal activity

Nc1nc2c(ncn2[C@@H]2O[C@H](CO)[C@@H](O)[C@H]2O)c(=O)[nH]1 [guanosine]
Km [12]: 13.9 µM | rate of transport ([7]; 1 µM [3H]-guanosine): 0.22 ± 0.01 pmol(10^7 cells)^−1s^−1 | rate of transport in the presence of unlabelled permeant ([7]; 1 µM [3H]-guanosine + 0.25 mM unlabelled guanosine): 0.0030 ± 0.0004 pmol(10^7 cells)^−1s^−1 | reduction of uptake ([7]; 1 µM [3H]-guanosine by 250 µM guanosine): 98.6% | Vmax ([7]; Guanosine (HA), average and SEM): 0.91 ± 0.25 pmol(10^7 cells)^−1s^−1 | Km ([7]; read-out: Km,app, Guanosine (HA), average and SEM): 9 ± 0.6 µM | Ki ([9]; average and SEM): 16.7 ± 2.6 µM | Ki [4, 17]: 12.2 ± 2.4 µM | inhibition of transport [5]: ≤ 50% | Ki [5]: > 250 µM | Hill slope (TvagENT3): −1.33 ± 0.09 | Ki (TvagENT3): 2.9 ± 0.14 µM | Ki [13, 19]: 7.41 ± 2.92 µM | Ki ([13]; inhibition of 1 µM [3H]-inosine uptake, average and SEM, listed as Guanosine): 7.4 ± 2.9 µM | EC50 [6, 20]: 51.2 µM

O=c1[nH]cnc2c1ncn2[C@@H]1O[C@H](CO)[C@@H](O)[C@H]1O [inosine]
Ki (TvagENT6 [14]): 40 ± 9.5 µM | Ki [8, 21]: 231 ± 23 µM | inhibition of uracil transport ([1]; uridine, thymidine up to 10 mM, adenosine, inosine up to 1 mM): unable to inhibit | Ki [4, 21]: 347 ± 127 µM | Hill slope (TvagENT3): −1.08 ± 0.02 | inhibition of cytidine uptake (TvagENT3; inhibitor at 400 µM): completely | Hill slope (TvagENT3; single experiment, Fig. 10D-F): −1.07 | rate of uptake ([13]; 1 µM [3H]-inosine): 0.0081 ± 0.0002 pmol(10^7 cells)^−1s^−1 | inhibition of uptake ([13]; 1 µM [3H]-inosine time course, 1 mM unlabelled nucleoside): 88% | rate of uptake ([13]; 1 µM [3H]-inosine, listed as Inosine): 0.0081 pmol(10^7 cells)^−1s^−1 | Vmax ([13]; Inosine (LA), average and SEM): 2.25 ± 0.37 pmol(10^7 cells)^−1s^−1 | EC50 ([13]; inhibition of 1 µM [3H]-inosine uptake, single experiment, Fig. 5B): 67.1 µM | Km ([13]; Inosine (LA), 1 µM [3H]-inosine, average and SEM): 196 ± 18 µM | Km ([13]; single experiment, Fig. 5B inset): 157 µM

Cc1c[nH]c(=O)[nH]c1=O [thymine]
Ki [1, 18]: 57 ± 8 µM | saturable uptake ([11]; thymine 0.5 µM over 120 s): not significant

O=c1ccn([C@@H]2O[C@H](CO)[C@@H](O)[C@H]2O)c(=O)[nH]1 [uridine]
Km [12]: 2.5 µM | Ki ([7]; average and SEM): 7.8 ± 1.3 µM | Vmax (TvagENT6 [3]; [3H]-uridine in the presence of 250 µM uracil, average): 0.092 ± 0.021 pmol(10^7 cells)^−1s^−1 | Km ([8]; 30 s, average and SEM): 5.49 ± 1.8 µM | Km ([8]; 30 s, average and SEM, listed as Uridine): 5.5 ± 1.8 µM | Ki ([9]; average and SEM): 1.98 ± 0.5 µM | Ki ([9]; average and SEM, listed as Uridine): 2 ± 0.5 µM | Ki [4, 17]: 3.7 ± 1 µM | EC50 [5]: 519 µM | Ki [5]: 376 ± 63 µM | Ki (TvagENT3): 11.3 ± 1.8 µM | inhibition of cytidine uptake (TvagENT3; inhibitor at 400 µM): completely | Hill slope (TvagENT3; inhibition of 0.5 µM [3H]-cytidine transport by TvagENT3, average): −0.98 ± 0.08 | Hill slope (TvagENT3; single experiment, Fig. 10D-F): −0.93 | Ki [13, 19]: 3.6 ± 1.1 µM | EC50 [6, 20]: 15.3 µM

TvagENT3 (Trichomonas vaginalis G3)
Km ([15]; other: 0.5 µM [3H]-cytidine, TvagENT3 in T. brucei TbAT1-KO, average): 10.2 ± 2.6 µM | Km ([15]; other: single experiment, Fig. 10D inset): 10.9 µM
